Reference: US9006243B2, “HIV inhibiting 6-substituted pyrimidines” (Janssen R&D Ireland, priority 2006, dated 2015)

How the values were obtained:
[1] = system: HIV strain IIIB (wild type); test: microbe, parasite or virus in culture; conditions: Human immunodeficiency virus 1, IIIB, 72 h, read-out: IIIB pEC50 (−log EC50) (converted)
Description: Compounds of the invention were tested for their potency against wild type virus and clinically isolated HIV strains harboring one or more mutations associated with resistance to reverse transcriptase inhibitors. Antiviral activity was evaluated using a cellular assay performed according to the following procedure.
The human T-cell line MT4 was engineered with Green Fluorescent Protein (GFP) and a HIV-specific promoter, HIV-1 long terminal repeat (LTR). This cell line, designated MT4 LTR-EGFP, can be used for the in vitro evaluation of anti-HIV activity of investigational compounds. In HIV-1 infected cells, the Tat protein is produced, which upregulates the LTR promotor and eventually leads to stimulation of the GFP reporter production, allowing to measure ongoing HIV-infection fluorometrically.
Analogously, MT4 cells were engineered with GFP and the constitutional cytomegalovirus (CMV) promotor. […] Cytotoxic investigational compounds reduce GFP levels of mock-infected MT4 CMV-EGFP cells.
The ratio of CC50 to EC50 is defined as the selectivity index (SI) and is an indication of the selectivity of the anti-HIV activity of the inhibitor. The ultimate monitoring of HIV-1 infection and cytotoxicity was done using a scanning microscope. Image analysis allows very sensitive detection of viral infection. Measurements were done before cell necrosis, which usually takes place about five days after infection, in particular measurements were performed three days after infection.
The columns IIIB, L100I, etc. in the table list the pEC50 (−log EC50) values against various strains IIIB, L100I, etc.; pSI lists the −log SI values.
Strain IIIB is wild type HIV strain.

HIV strain K103N + Y181C = test: microbe, parasite or virus in culture; format: cell-based, HIV-1; conditions: Human immunodeficiency virus 1, 72 h, read-out: K103N + Y181C pEC50 (−log EC50) (converted)
Text: (§1) Image analysis allows very sensitive detection of viral infection.

HIV strain L100I + K103N = test: microbe, parasite or virus in culture; format: cell-based, HIV-1; conditions: Human immunodeficiency virus 1, 72 h, read-out: L100I + K103N pEC50 (−log EC50) (converted)
Text: as §1

HIV strain Y181C = test: microbe, parasite or virus in culture; format: cell-based, HIV-1; conditions: Human immunodeficiency virus 1, 72 h, read-out: Y181C pEC50 (−log EC50) (converted)
Text: as §1

[2] = system: HIV strain MDR (L100I, K103N, Y181C, E138G, V179I, L2214F, V278V/I and A327A/V in HIV reverse transcriptase); test: microbe, parasite or virus in culture; format: cell-based, HIV-1; conditions: Human immunodeficiency virus 1, 72 h, read-out: MDR pEC50 (−log EC50) (converted)
Text: as §1
“MDR” refers to a strain that contains mutations L100I, K103N, Y181C, E138G, V179I, L2214F, V278V/I and A327A/V in HIV reverse transcriptase.

| Compound | EC50 [1] | EC50 (HIV strain K103N + Y181C) | EC50 (HIV strain L100I + K103N) | EC50 (HIV strain Y181C) | EC50 [2] | melting point |
| --- | --- | --- | --- | --- | --- | --- |
| Cc1cc(/C=C/C#N)cc(C)c1Nc1cc(-c2cccnc2)nc(Nc2ccc(C#N)cc2)n1 [Compound 1] | 0.00347 µM | 0.0195 µM | 0.115 µM | 0.011 µM | 1.78 µM | 180 °C |
| Cc1cc(/C=C/C#N)cc(C)c1Nc1cc(C(=O)NCCF)nc(Nc2ccc(C#N)cc2)n1 [Compound 5] | 0.00158 µM | 0.00437 µM | 0.0251 µM | 0.00631 µM | 1.41 µM | > 250 °C |
| Cc1cc(/C=C/C#N)cc(C)c1Nc1cc(C(=O)NCCC#N)nc(Nc2ccc(C#N)cc2)n1 [Compound 6] | 0.00891 µM | – | 0.0407 µM | 0.02 µM | 1.86 µM | 250 °C |
| Cc1cc(/C=C/C#N)cc(C)c1Nc1cc(C(=O)NCc2ccncc2)nc(Nc2ccc(C#N)cc2)n1 [Compound 7] | 0.00417 µM | 0.0178 µM | – | 0.0166 µM | 2.34 µM | 202 °C |
| Cc1cc(/C=C/C#N)cc(C)c1Nc1cc(C(=O)NCc2ccco2)nc(Nc2ccc(C#N)cc2)n1 [Compound 8] | 0.0055 µM | 0.0316 µM | 0.0851 µM | 0.0186 µM | 8.13 µM | 256 °C |
| Cc1cc(/C=C/C#N)cc(C)c1Nc1cc(C(O)c2nccs2)nc(Nc2ccc(C#N)cc2)n1 (stereo not shown) [Compound 11] | 0.00182 µM | 0.0191 µM | 0.00631 µM | 0.00407 µM | 0.692 µM | 147 °C |
| Cc1cc(/C=C/C#N)cc(C)c1Nc1cc(/C=N/O)nc(Nc2ccc(C#N)cc2)n1 [Compound 34] | 0.00398 µM | 0.00398 µM | 0.0126 µM | 0.01 µM | 0.501 µM | 220 °C |
